Assay results taken from patent publication US9650339B2, “Inhibitors of histone demethylases” (Gilead Sciences, Inc., priority 2013, dated 2017).

Assays:
[1] = target: T1, KDM4B (JMJD2B) (Homo sapiens, UniProt O94953); test: Histone lysine demethylase AlphaLISA assay, KDM4B; format: biochemical; conditions: read-out: KDM4B HDME Inhibition IC50
T1 construct: 2-500; purchased BPS; host or cells: Bac (baculovirus system)
T1 sequence (O94953 2-500): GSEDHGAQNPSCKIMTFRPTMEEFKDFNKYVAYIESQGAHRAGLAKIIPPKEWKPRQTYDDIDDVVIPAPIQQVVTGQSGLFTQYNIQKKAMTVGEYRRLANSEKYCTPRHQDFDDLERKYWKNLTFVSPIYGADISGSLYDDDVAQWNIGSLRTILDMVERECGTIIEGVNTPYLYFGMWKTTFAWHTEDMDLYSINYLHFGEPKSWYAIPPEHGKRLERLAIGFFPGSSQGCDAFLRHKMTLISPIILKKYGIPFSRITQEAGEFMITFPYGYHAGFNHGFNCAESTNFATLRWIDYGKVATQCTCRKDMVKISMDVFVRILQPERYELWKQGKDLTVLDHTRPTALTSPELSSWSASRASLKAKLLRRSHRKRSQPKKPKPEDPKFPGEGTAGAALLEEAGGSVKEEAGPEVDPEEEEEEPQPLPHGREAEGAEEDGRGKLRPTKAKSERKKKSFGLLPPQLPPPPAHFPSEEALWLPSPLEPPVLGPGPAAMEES
Summary of the method: (§1)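 Biotinylated methylated H3 peptides (K9, K4, K27 or K36 marks) served as substrate, with 25 μM L-Asc and 10 μM α-KG. Enzymes were preincubated 10 min, then exposed to compounds (3% DMSO solutions) 10 min; product detected by AlphaLISA acceptor and streptavidin donor beads at room temperature in dark.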

[2] = target: T2, KDM5B (PLU-1) (Homo sapiens, UniProt Q9UGL1); test: Histone lysine demethylase AlphaLISA assay, KDM5B; format: biochemical; conditions: read-out: KDM5B HDME Inhibition IC50
T2 sequence (Q9UGL1 1-809): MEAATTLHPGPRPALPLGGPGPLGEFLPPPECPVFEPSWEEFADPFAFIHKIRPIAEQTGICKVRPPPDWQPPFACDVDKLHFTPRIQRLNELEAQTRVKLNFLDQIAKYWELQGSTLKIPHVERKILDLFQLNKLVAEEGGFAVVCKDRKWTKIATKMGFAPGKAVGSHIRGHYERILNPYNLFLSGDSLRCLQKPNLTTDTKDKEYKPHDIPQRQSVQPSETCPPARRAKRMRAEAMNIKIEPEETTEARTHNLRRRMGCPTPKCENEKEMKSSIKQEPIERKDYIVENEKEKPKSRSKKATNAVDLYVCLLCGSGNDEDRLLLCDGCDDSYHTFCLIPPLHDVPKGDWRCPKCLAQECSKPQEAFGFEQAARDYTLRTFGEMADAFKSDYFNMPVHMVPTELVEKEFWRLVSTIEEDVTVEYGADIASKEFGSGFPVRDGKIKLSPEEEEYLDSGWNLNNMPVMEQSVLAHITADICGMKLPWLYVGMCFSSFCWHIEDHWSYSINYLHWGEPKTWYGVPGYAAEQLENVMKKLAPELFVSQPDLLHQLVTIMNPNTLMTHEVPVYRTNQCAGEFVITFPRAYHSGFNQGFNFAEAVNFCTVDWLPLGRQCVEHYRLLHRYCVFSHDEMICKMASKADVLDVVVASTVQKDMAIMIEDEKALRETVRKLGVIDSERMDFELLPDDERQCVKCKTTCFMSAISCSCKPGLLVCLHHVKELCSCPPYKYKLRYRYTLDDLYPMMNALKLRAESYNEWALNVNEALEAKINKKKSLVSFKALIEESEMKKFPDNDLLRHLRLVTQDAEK
Summary of the method: as §1

IC50 [1] [µM] | IC50 [2] [µM] | SMILES
> 2.5 | > 2.5 | CN(C)CCCCNCc1cc(CN)ccn1 [Compound 2, [2-({[4-(dimethylamino)butyl]-amino}methyl)pyridin-4-yl]methanamine]
> 2.5 | 0.25 to 2.5 | CN(C)CCNCc1ccnc(CNCCCN(C)Cc2ccccc2)c1 [Compound 18, benzyl[3-({[4-({[2-(dimethylamino)ethyl]-amino}methyl)pyridin-2-yl]methyl}-amino)propyl]-methylamine]
> 2.5 | 0.25 to 2.5 | COCCNCc1ccnc(CNCCCN(C)Cc2ccccc2)c1 [Compound 19, benzyl(3-{[(4-{[(2-methoxyethyl)amino]-methyl}pyridin-2-yl)methyl]amino}-propyl)methylamine]
< 0.25 | < 0.25 | COc1ccccc1CN1CCC(NC(=O)CNCc2cc(CNC3CC3)ccn2)CC1 [Compound 20, 2-[({4-[(cyclopropylamino)-methyl]pyridin-2-yl}methyl)amino]-N-{1-[(2-methoxyphenyl)methyl]-piperidin-4-yl}acetamide]
– | > 2.5 | CCN(CCN(C)C)C(=O)CN(Cc1cc(CNC(=O)C(F)(F)F)ccn1)C(=O)C(F)(F)F [Compound 26, N-[(2-{[N-({[2-(dimethylamino)ethyl]-(ethyl)carbamoyl}-methyl)-2,2,2-trifluoroacetamido]-methyl}pyridin-4-yl)methyl]-2,2,2-trifIuoroacetamide]
< 0.25 | < 0.25 | COC(=O)CNCc1cc(/C=N/C2CC2)ccn1 [Compound 59, methyl 2-[({4-[N-cyclopropyl-carboximidoyl]pyridin-2-yl}methyl)amino]-acetate]
– | < 0.25 | CCN(CC)CCCCNCc1cc(C2NCCCN2C)ccn1 (stereo not shown) [Compound 68, [4-(diethylamino)butyl]({[4-(1-methyl-1,3-diazinan-2-yl)pyridin-2-yl]methyl})amine]
< 0.25 | < 0.25 | O=Cc1ccnc(CNCCCCN(Cc2ccccc2)C2CC2)c1 [Compound 109, 2-[({4-[benzyl-(cyclopropyl)amino]-butyl}amino)methyl]-pyridine-4-carbaldehyde]
< 0.25 | < 0.25 | O=Cc1ccnc(CNCC(=O)NC2CCN(Cc3ccccc3)C2)c1 (stereo not shown) [Compound 113, N-(1-benzylpyrrolidin-3-yl)-2-{[(4-formylpyridin-2-yl)methyl]amino}-acetamide]
